In patent US12606795B2 (Thankcome Biological Science and Technology (SuZhou) Co., …, priority 2023, dated 2026):

How the values were obtained:
mice = test: Subchronic toxicity experiment, 90 d; assay type: in vivo
Procedure: Animals were randomly divided into four groups: group 1 (half male and half female) (saline, 0 CFU/kg. bw/d), group 2 (half male and half female) (9.2×10^8 CFU/kg. bw/d), group 3 (half female and half male) ([…]), and group 4 (half male and half female) (92×10^8 CFU/kg. bw/d). A new bacterial suspension was prepared per day. The bacterial suspension was intragastrically administrated orally for 90 consecutive days at a dosage volume of 5 mL/kg. bw. Clinical signs were recorded per day, and detailed clinical observation was conducted once a week. The body weight, the food consumption, and the water intake were recorded once a week. At the end of the experimental period, blood samples were collected for hematological and serum biochemical analysis (refer to Embodiment 4). An autopsy was conducted on all animals, and the weight of main organs was recorded. A histopathological examination was performed on the major organs and tissue of all the animals in each group (refer to Embodiment 4). […]
Determination of blood glucose: In a certain time interval after administration, at 0, 15, 30, 60, 90 and 120 min, the tail venous blood of the mouse was taken, and the blood glucose level of the mouse was measured using a blood glucose meter measurement method. […]

[1] = test system: DSS-induced ulcerative colitis mice; test: DSS-induced ulcerative colitis in mice; assay type: in vivo, C57BL/6J mice; conditions: 5.0% DSS mice, 1×10^10 CFU/mL intragastric daily 9 d
Procedure: Animals and their management: male C57BL/6J mice (6 to 10-week-old, weighing 18 to 24 g) purchased from the Beijing Huafukang Biotechnology Co., Ltd, where procedures involving mice were carried out in strict accordance with international animal care standards, and approved by the Animal Protection Institute and Management Committee of Jilin Agricultural University. Adaptive culture was performed for 1 week, and mice were cultured at room temperature (25° C.±1° C.) in a cycle of 12 h of light and 12 h of darkness.
Animal experimental design: 5.0% (wt/vol) DSS (molecular weight: 36,000 to 50,000) was added to drinking water of the mice for 3 consecutive days to induce colitis. Beginning on the first day of taking DSS, the A. muciniphila (viable or inactivated, with a concentration of 1×10^10 CFU/mL) was intragastrically administered per day for 9 consecutive days. C57BL/6J mice were randomly divided into four groups: a control group, a DSS model group (DSS), an AKK PRO group, and an inactivated AKK PRO group (mAKK PRO). Physiological indicators of the mice in each group were observed.
Physiological indicators: The physiological indicators are used for assessing health statuses of the mice. The individual scores of the mice were combined to generate disease activity indices (DAI), including changes of body weight, food intake, and fecal consistency. After the mice were euthanized, the colon length and the liver weight of each mouse in each group were measured, and an immune organ index was calculated according to the following formula: liver index=liver weight (mg)/body weight (g) [Wang, X., et al., Troxerutin Improves Dextran Sulfate Sodium-Induced Ulcerative Colitis in Mice. J Agric Food Chem, 2021. 69 (9): p. 2729-2744.].

[2] = Cell surface hydrophobicity (bacterial adherence to hydrocarbon, xylene); assay type: physicochemical; conditions: at 60 min
Procedure: Based on the ability of bacteria to adhere to hydrocarbons, the cell surface hydrophobicity of strain AKK PROBIO was measured. A test of bacterial adherence to hydrocarbon (BATH) was conducted using xylene, and some modifications were made. Specifically, the strains were cultured overnight in a BHI medium at 37° C. Cells were collected by centrifugation (4° C.; 8000 rpm; 10 min), washed twice, and resuspended in a phosphate buffer (PBS, pH 7), and absorbance (OD600 nm) was adjusted to 0.5 to normalize bacteria number. Then, an equal volume of xylene was added and vortexed for 5 min to fully mix a two-phase system. After the incubation at room temperature for 15, 30, and 60 min, an aqueous phase was carefully removed, and its absorbance at 600 nm was measured using a spectrophotometer. The affinity (hydrophobicity) for the hydrocarbons was calculated using the following formula:
[formula] • where P0 and P1 are absorbance values before and after extraction with the hydrocarbons, respectively.

## Akkermansia muciniphila [AKK PROBIO]
mice; 90 d
  pathological injury to the livers and kidneys: no significant pathological injury
mice; 90 d, heart, liver, spleen, kidneys, thymus, brain, testes, lungs, pancreas, stomach, intestine, vs control group
  weight of major organs: substantially no significant difference
mice; 90 d, medium-dosage group (27.6×10^8) vs control saline group
  changes of blood glucose per week: significant difference
mice; 90 d, the other groups (low, high dosage) vs control group
  changes of blood glucose per week: no significant difference
mice; 90 d, the other groups vs control group
  level of the bile acid both in serum and liver: no significant difference
mice; 90 d, vs control group
  activity of glutamic oxalacetic transaminase in both serum and liver: no significant difference
  activity of glutamic pyruvate transaminase in both serum and liver: no significant difference
  blood glucose regulation ability (glucose tolerance and insulin tolerance): no significant difference
  concentration of blood urea nitrogen in serum: no significant difference
  content of creatinine in serum: no significant difference
  content of total protein in both serum and liver: no significant difference
  level of glucose in both serum and liver: no significant difference
  level of the cholesterol in both liver and serum: no significant difference
  level of the triglyceride in both liver and serum: no significant difference
mice; 90 d, vs control saline group
  changes of body weight per week: no significant difference
  changes of food intake per week: no significant difference
  various blood indicators: no significant difference
mice; intragastric 90 consecutive days, high, medium, low dosage (92×10^8, 27.6×10^8, 9.2×10^8 CFU/kg. bw/d)
  death: no death occurs
[1]; vs DSS group
  immune organ index (liver index): significantly decreased
[1]; vs DSS group, P<0.05
  colon length: significantly increased
[1]; vs model group
  DAI score: lower
  body weight reduced: less
  food intake reduced: less
[2]
  hydrophobicity: ≥ 30%
